According to ChEMBL document CHEMBL1201862, “PubChem BioAssay data set” (2004):
Each block holds one compound with its values, some of them ahead of it. The source made the active and inactive calls.

How the values were obtained:
[1] = biological target: T1, fMet-Leu-Phe receptor (Homo sapiens, UniProt P21462); assay: FPR ligands, dose response (AID 519); assay type: functional
T1 sequence (P21462 whole entry): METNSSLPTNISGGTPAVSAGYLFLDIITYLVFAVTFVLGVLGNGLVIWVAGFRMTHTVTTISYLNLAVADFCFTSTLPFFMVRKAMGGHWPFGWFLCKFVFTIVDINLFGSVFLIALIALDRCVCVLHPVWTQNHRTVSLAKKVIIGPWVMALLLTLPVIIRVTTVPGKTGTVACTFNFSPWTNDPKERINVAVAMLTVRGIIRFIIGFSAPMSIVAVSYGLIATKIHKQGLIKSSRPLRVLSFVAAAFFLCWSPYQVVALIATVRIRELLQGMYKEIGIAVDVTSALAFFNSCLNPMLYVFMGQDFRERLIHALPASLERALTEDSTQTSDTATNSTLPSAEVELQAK

[2] = test system: P388/ADR; assay: cells; assay type: functional; details: Mus musculus
[3] = test system: SN12K1; assay: cells; assay type: functional; details: Homo sapiens
[4] = test system: P388; assay: cells; assay type: functional; details: Mus musculus
[5] = biological target: Paired box protein Pax-8 (Homo sapiens, UniProt Q06710); assay: inhibitors of PAX8-driven TPO luciferase reporter, dose response, RMG-I cells, cherry-pick (AID 687027); assay type: functional, cell-based;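 also: luciferase reporter driven by Pax8 target thyroperoxidase promoter measured by SteadyGlo luminescence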
[6] = NIH:OVCAR-3 ovarian cancer cell cytotoxicity, dose response, PAX8 inhibitor project, plate reader, dry powder samples (AID 743044); assay type: functional, cell-based
[7] = cytotoxicity in OVCAR8 ovarian cancer cells, dose response, PAX8 project, cell-based, plate reader, dry powder samples (AID 743197); assay type: functional; details: OVCAR-8
[8] = biological target: T2, Coagulation factor XII (Homo sapiens, UniProt P00748); assay type: functional;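 also: activated factor XIIa alpha cleaving a fluorogenic AMC peptide substrate; inhibitor potency from loss of enzyme activity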
T2 sequence (P00748 whole entry): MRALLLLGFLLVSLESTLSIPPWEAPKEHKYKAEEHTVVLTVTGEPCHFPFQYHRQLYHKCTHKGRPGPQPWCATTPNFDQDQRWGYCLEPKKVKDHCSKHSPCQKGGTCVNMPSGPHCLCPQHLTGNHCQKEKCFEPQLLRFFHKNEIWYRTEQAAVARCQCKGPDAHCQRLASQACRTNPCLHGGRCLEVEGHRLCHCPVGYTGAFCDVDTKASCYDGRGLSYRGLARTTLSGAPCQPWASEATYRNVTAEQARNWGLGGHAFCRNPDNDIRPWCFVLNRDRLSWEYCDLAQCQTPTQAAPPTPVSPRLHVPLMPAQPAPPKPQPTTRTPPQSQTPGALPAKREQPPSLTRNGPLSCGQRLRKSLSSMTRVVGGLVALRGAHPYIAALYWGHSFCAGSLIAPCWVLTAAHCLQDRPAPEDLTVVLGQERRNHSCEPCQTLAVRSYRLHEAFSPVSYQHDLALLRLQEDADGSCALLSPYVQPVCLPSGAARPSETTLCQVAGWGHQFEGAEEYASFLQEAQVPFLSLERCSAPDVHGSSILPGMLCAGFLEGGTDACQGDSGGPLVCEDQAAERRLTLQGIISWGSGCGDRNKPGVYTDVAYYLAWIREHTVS

[9] = biological target: Glyceraldehyde-3-phosphate dehydrogenase (Homo sapiens, UniProt P04406)
[10] = biological target: T3, Alkaline phosphatase, tissue-nonspecific isozyme (Homo sapiens, UniProt P05186); assay: human TNAP enzyme inhibitors, SAR follow-up, biochemical, luminescent, dose response (AID 1056)
T3 sequence (P05186 whole entry): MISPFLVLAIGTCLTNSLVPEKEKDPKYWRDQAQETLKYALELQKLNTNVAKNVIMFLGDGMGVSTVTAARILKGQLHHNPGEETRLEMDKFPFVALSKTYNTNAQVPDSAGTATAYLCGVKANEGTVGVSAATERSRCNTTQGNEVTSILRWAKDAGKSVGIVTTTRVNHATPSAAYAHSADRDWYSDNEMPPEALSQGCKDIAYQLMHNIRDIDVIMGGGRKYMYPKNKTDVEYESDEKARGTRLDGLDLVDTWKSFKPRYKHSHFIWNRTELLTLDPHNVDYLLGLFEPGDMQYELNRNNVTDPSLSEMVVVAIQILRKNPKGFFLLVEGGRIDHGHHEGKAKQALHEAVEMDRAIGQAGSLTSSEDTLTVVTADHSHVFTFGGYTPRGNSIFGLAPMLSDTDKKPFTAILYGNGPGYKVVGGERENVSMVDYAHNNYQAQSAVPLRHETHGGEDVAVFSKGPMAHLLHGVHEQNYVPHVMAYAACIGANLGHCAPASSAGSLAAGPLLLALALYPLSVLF

[11] = biological target: Prothrombin (Homo sapiens, UniProt P00734); assay: Thrombin 1536 HTS Dose Response Confirmation. [Related pubchem assays: 1046 (Thrombin 1536 HTS; hits were confirmed in this assay)]; assay type: functional
[12] = biological target: T4, Heat shock factor protein 1 (Mus musculus, UniProt P38532); assay: inhibition of MG132-induced HSE-luciferase signal, confirmation, cell-based, NIH3T3, luminescence, dose retest (AID 2382); assay type: functional;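 also: NIH3T3 fibroblasts with HSF1-driven luciferase reporter stressed by proteasome inhibitor MG132; luminescence from HSF1-driven luciferase expression after 8 hours of MG132 stress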
T4 sequence (P38532 whole entry): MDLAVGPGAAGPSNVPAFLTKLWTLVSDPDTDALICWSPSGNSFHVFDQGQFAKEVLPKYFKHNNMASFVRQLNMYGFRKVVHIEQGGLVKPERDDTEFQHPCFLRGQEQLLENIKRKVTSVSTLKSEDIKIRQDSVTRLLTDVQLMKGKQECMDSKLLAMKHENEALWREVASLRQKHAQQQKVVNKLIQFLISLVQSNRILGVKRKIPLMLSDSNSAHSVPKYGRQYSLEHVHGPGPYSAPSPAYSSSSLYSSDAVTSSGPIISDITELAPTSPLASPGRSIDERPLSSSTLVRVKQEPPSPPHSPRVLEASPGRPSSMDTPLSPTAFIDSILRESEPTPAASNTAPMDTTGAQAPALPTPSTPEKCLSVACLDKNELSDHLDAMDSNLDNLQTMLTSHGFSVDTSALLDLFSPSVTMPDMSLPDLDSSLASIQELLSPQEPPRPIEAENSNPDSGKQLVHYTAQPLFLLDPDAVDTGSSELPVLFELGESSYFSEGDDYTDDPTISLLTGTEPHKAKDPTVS

Glyceraldehyde-3-phosphate dehydrogenase, sequence (P04406 whole entry): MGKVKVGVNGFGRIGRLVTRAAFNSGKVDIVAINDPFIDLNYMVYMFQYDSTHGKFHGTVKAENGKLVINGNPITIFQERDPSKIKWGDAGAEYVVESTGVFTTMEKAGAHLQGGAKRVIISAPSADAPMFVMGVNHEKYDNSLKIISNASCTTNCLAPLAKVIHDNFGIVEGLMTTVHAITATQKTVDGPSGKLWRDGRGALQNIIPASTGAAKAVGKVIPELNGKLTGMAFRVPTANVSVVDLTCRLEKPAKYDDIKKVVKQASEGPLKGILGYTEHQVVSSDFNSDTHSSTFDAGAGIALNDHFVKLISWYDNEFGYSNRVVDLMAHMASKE
Paired box protein Pax-8, sequence (Q06710 whole entry): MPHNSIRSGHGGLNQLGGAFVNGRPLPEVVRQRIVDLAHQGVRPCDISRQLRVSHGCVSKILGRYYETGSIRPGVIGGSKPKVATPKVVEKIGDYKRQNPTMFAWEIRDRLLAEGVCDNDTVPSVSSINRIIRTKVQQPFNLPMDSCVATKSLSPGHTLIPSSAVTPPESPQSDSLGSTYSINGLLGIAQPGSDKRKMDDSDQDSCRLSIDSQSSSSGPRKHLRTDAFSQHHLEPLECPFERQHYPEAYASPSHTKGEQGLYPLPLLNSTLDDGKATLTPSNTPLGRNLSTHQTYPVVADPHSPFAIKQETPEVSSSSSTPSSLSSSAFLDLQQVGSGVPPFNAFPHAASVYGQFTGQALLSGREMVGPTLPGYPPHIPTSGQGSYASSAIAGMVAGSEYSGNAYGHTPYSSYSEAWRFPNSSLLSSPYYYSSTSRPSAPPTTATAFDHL

SMILES: COC1=C(C)C(=O)C2=C(C1=O)[C@@H]1[C@@H]3Cc4c(OC(=O)CO)c(C)c(OC)c(O)c4[C@H](CNC(=O)C(C)=O)N3[C@@H](C#N)[C@H](C2)N1C
GI50 [2]: 0.125 µM (active)
GI50 [3]: 0.0358 µM (active)
GI50 [4]: < 0.01 µM (active)

SMILES: Cc1ccc(S(=O)(=O)Nc2ccc3c(c2)C(=O)N([C@@H](C)CO)C[C@@H](C)[C@H](CN(C)Cc2ccc(C(F)(F)F)cc2)OCCCC[C@H](C)O3)cc1
AC50 [5]: 6.38 µM (active)
AC50 [6]: 4.07 µM (active)
AC50 [7]: > 70 µM (inactive)

SMILES: CC1[C@@]2(O[C@@H]3C=C4C5CCC6Cc7nc8c(nc7C[C@@]6(C)C5C[C@H](O)[C@@]4(C)[C@]13O)CC1CCc3c(cc4c5c3C(O)C[C@H]5[C@@H](C)C3(O4)OC(C)(C)CC3O)[C@]1(C)C8)O[C@@](C)(CO)C[C@@H]2O (stereo partly drawn)
GI50 [2]: 2.69 µM (inactive)
GI50 [3]: 0.0404 µM (active)
GI50 [4]: 0.103 µM (active)

SMILES: COC(=O)[C@H](C(C)C)n1c(C)c(C(C)=O)c(C(C)=O)c1C
Ki [1]: > 66.7 µM (inactive)

SMILES: COc1ccc(-c2ccc3c(c2)[C@@H]2[C@@H](CCN2S(=O)(=O)c2ccc(OC)cc2)[C@@H](CO)N3C)cc1
AC50 [5]: 12.3 µM (active)
AC50 [6]: 31.2 µM (active)
AC50 [7]: 51.2 µM (active)

SMILES: O=C(O)CC(Cc1ccc(Br)cc1)C(=O)O (stereo not drawn)
EC50 [12]: > 195 µM (not active)
IC50 [8]: > 50 µM (inactive)

SMILES: CN(N=O)C(=O)N[C@H]1C(O)O[C@H](CO)[C@@H](O)[C@@H]1O (stereo partly drawn)
GI50 [2]: 484 µM (inactive)
GI50 [3]: 532 µM (inactive)
GI50 [4]: 451 µM (inactive)

SMILES: Nc1ccnn1Cc1cccs1
IC50 [8]: > 50 µM (inactive)

SMILES: C#CCNC(=O)CCC(N)C(=O)O (stereo not drawn)
GI50 [2]: > 100 µM (inactive)
GI50 [3]: > 100 µM (inactive)
GI50 [4]: > 100 µM (inactive)

SMILES: C[C@H](N)C(=O)N[C@@H]1[C@H]2C(=C(O)C[C@@H](O)[C@@H]2O)C(=O)O[C@@H]1C
GI50 [2]: > 73.3 µM (inactive)
GI50 [3]: > 100 µM (inactive)
GI50 [4]: > 53.2 µM (inactive)

SMILES: O=C1NC2(CCCCC2)NN1c1ccccc1
IC50 [11]: > 50 µM (not active)

SMILES: Nc1ccn(C2OC(CO)C(O)C2O)c(=O)c1 (stereo not drawn)
GI50 [3]: 344 µM (inactive)
GI50 [4]: 57 µM (inactive)

Further lines, results first:

Ki [1]: > 66.7 µM (inactive)
SMILES: O=C(C1=C(O)C(=O)N(CCc2ccccc2)C1c1cccnc1)c1ccco1 (stereo not drawn)

IC50 [8]: > 50 µM (inactive)
SMILES: CC(CN1C(C)CCCC1C)OC(=O)c1ccc(Cl)cc1Cl (stereo not drawn)

IC50 [9]: > 100 µM (not active)
IC50 [10]: 44.9 µM (active)
SMILES: Cc1ccc(S(=O)(=O)Nc2cnc3ccccc3c2)cc1

Ki [1]: 61.1 µM (inactive)
SMILES: CCc1nnc(NC(=O)CSc2nnc(-c3cc4ccccc4cc3O)n2CC)s1

IC50 [11]: 4.3 µM (active)
SMILES: NC(=O)c1ccsc1NC(=O)c1nc(-c2ccccc2)n(-c2ccccc2)n1

IC50 [11]: > 50 µM (not active)
SMILES: O=C(CSC1CCCCC1)Nc1nccs1

IC50 [9]: > 100 µM (not active)
IC50 [10]: 34.1 µM (active)
SMILES: COc1ccc2c(c1OC)C(=O)N(c1nnc(SC)[nH]1)C2=O

IC50 [9]: > 100 µM (not active)
IC50 [10]: > 100 µM (inactive)
SMILES: c1ccc(Cn2cnc(-c3cccnc3)c2)cc1

IC50 [11]: 0.00426 µM (active)
SMILES: CCCC(=O)n1nc(-c2cccnc2)nc1NCc1cccs1

IC50 [9]: > 10 µM (inconclusive)
IC50 [10]: 3.63 µM (active)
SMILES: CCN(CC)C(=O)c1cc(-c2cc(F)c(Cl)cc2Cl)n[nH]1

IC50 [8]: > 50 µM (inactive)
SMILES: COc1ccc(N(CC(=O)Nc2ccc3c(c2)OCCO3)S(=O)(=O)c2c(C)nn(C)c2C)cc1

IC50 [11]: 1.44 µM (active)
SMILES: CC(=O)n1nc(-c2ccc(Cl)cc2)nc1NCc1ccco1

IC50 [8]: > 50 µM (inactive)
SMILES: CCC(CC)c1nnc(NC(=O)Oc2ccccc2)s1

EC50 [12]: > 195 µM (not active)
IC50 [8]: > 50 µM (inactive)
SMILES: Cc1nn2c(CN(C(=O)CN3CCOCC3)c3ccccc3)nnc2c2ccccc12

Ki [1]: 60.7 µM (inactive)
SMILES: O=C(C1=C(O)C(=O)N(CCCN2CCOCC2)C1c1ccccn1)c1cc2ccccc2o1 (stereo not drawn)
